Test results taken from ChEMBL document CHEMBL1212786 (Antimicrob Agents Chemother, 2010).

How the values were obtained:
[1] = Intrinsic clearance in CD1 mouse liver microsomes at 1 uM after 5 to 30 mins by MS analysis in presence of NADPH; type: ADME, Microsome
Cytochrome P450 3A4 = Cytochrome P450 3A4 (Homo sapiens, UniProt P08684); assay: Inhibition of human recombinant CYP3A4 after 30 mins; type: ADME
Cytochrome P450 2D6 = Cytochrome P450 2D6 (Homo sapiens, UniProt P10635); assay: Inhibition of human recombinant CYP2D6 after 30 mins; type: ADME
Chain of Cytochrome P450 2D6 (P10635 whole entry): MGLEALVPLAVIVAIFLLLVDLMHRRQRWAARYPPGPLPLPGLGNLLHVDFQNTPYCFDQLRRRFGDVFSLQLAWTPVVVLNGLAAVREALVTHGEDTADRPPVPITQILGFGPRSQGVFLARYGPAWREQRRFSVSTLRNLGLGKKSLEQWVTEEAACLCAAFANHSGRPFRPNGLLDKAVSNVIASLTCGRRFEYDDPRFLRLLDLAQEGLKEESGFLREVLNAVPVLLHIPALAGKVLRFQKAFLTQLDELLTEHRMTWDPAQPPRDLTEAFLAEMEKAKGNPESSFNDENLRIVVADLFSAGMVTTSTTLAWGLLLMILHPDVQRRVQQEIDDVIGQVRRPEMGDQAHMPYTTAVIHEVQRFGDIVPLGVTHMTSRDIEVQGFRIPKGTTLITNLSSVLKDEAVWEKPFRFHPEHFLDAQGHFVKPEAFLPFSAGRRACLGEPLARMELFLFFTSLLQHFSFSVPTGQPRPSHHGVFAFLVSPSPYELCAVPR

[2] = Cmax in Sprague-Dawley rat at 2 mg/kg, iv after 24 hrs by LC/MS/MS analysis; type: ADME, organism-based; parameters: dose 2 mg/kg, route intravenous; conditions: in vivo
[3] = Cmax in Sprague-Dawley rat at 5 mg/kg, iv after 24 hrs by LC/MS/MS analysis; type: ADME, organism-based; parameters: dose 5 mg/kg, route intravenous; conditions: in vivo
[4] = Cmax in monkey at 1.4 mg/kg, iv after 24 hrs by LC/MS/MS analysis; type: ADME, organism-based, Macaca mulatta; parameters: dose 1.4 mg/kg, route intravenous; conditions: rhesus monkey, in vivo
[5] = Cmax in monkey at 1 mg/kg, iv after 24 hrs by LC/MS/MS analysis; type: ADME, organism-based, Macaca mulatta; parameters: dose 1 mg/kg, route intravenous; conditions: rhesus monkey, in vivo
[6] = Apparent volume of distribution in Sprague-Dawley rat at 5 mg/kg, iv after 24 hrs by LC/MS/MS analysis; type: ADME, organism-based; parameters: dose 5 mg/kg, route intravenous; conditions: in vivo, read-out: Vz
[7] = Apparent volume of distribution in monkey at 1.4 mg/kg, iv after 24 hrs by LC/MS/MS analysis; type: ADME, organism-based, Macaca mulatta; parameters: dose 1.4 mg/kg, route intravenous; conditions: rhesus monkey, in vivo, read-out: Vz
[8] = Apparent volume of distribution in monkey at 1 mg/kg, iv after 24 hrs by LC/MS/MS analysis; type: ADME, organism-based, Macaca mulatta; parameters: dose 1 mg/kg, route intravenous; conditions: rhesus monkey, in vivo, read-out: Vz
[9] = Systemic clearance in Sprague-Dawley rat at 5 mg/kg, iv after 24 hrs by LC/MS/MS analysis; type: ADME, organism-based; parameters: dose 5 mg/kg, route intravenous; conditions: in vivo
[10] = Systemic clearance in monkey at 1 mg/kg, iv after 24 hrs by LC/MS/MS analysis; type: ADME, organism-based, Macaca mulatta; parameters: dose 1 mg/kg, route intravenous; conditions: rhesus monkey, in vivo
[11] = Apparent elimination half life in Sprague-Dawley rat at 2 mg/kg, iv by LC/MS/MS analysis; type: ADME, organism-based; parameters: dose 2 mg/kg, route intravenous; conditions: in vivo
[12] = Apparent elimination half life in Sprague-Dawley rat at 5 mg/kg, iv by LC/MS/MS analysis; type: ADME, organism-based; parameters: dose 5 mg/kg, route intravenous; conditions: in vivo
[13] = Apparent elimination half life in monkey at 1 mg/kg, iv by LC/MS/MS analysis; type: ADME, organism-based, Macaca mulatta; parameters: dose 1 mg/kg, route intravenous; conditions: rhesus monkey, in vivo
[14] = AUC (0 to infinity) in Sprague-Dawley rat at 2 mg/kg, iv after 24 hrs by LC/MS/MS analysis; type: ADME, organism-based; parameters: time infinity, dose 2 mg/kg, route intravenous; conditions: plasma
[15] = AUC (0 to infinity) in Sprague-Dawley rat at 5 mg/kg, iv after 24 hrs by LC/MS/MS analysis; type: ADME, organism-based; parameters: time infinity, dose 5 mg/kg, route intravenous; conditions: plasma
[16] = AUC (0 to infinity) in monkey at 1.4 mg/kg, iv after 24 hrs by LC/MS/MS analysis; type: ADME, organism-based, Macaca mulatta; parameters: time infinity, dose 1.4 mg/kg, route intravenous; conditions: rhesus monkey, plasma
[17] = AUC (0 to infinity) in monkey at 1 mg/kg, iv after 24 hrs by LC/MS/MS analysis; type: ADME, organism-based, Macaca mulatta; parameters: time infinity, dose 1 mg/kg, route intravenous; conditions: rhesus monkey, plasma
[18] = Cmax in Sprague-Dawley rat at 5 mg/kg, po after 24 hrs by LC/MS/MS analysis; type: ADME, organism-based; parameters: dose 5 mg/kg, route oral; conditions: in vivo
[19] = Cmax in monkey at 15 mg/kg, po after 24 hrs by LC/MS/MS analysis; type: ADME, organism-based, Macaca mulatta; parameters: dose 15 mg/kg, route oral; conditions: rhesus monkey, in vivo
[20] = Cmax in monkey at 5 mg/kg, po after 24 hrs by LC/MS/MS analysis; type: ADME, organism-based, Macaca mulatta; parameters: dose 5 mg/kg, route oral; conditions: rhesus monkey, in vivo
[21] = Tmax in monkey at 5 mg/kg, po by LC/MS/MS analysis; type: ADME, organism-based, Macaca mulatta; parameters: dose 5 mg/kg, route oral; conditions: rhesus monkey, in vivo
[22] = Tmax in monkey at 15 mg/kg, po by LC/MS/MS analysis; type: ADME, organism-based, Macaca mulatta; parameters: dose 15 mg/kg, route oral; conditions: rhesus monkey, in vivo
[23] = Tmax in monkey at 7. 5 mg/kg, po by LC/MS/MS analysis; type: ADME, organism-based, Macaca mulatta; parameters: dose 5 mg/kg, route oral; conditions: rhesus monkey, in vivo
[24] = AUC (0 to infinity) in Sprague-Dawley rat at 5 mg/kg, po after 24 hrs by LC/MS/MS analysis; type: ADME, organism-based; parameters: time infinity, dose 5 mg/kg, route oral; conditions: plasma
[25] = AUC (0 to infinity) in Sprague-Dawley rat at 20 mg/kg, po after 24 hrs by LC/MS/MS analysis; type: ADME, organism-based; parameters: time infinity, dose 20 mg/kg, route oral; conditions: plasma
[26] = AUC (0 to infinity) in monkey at 15 mg/kg, po after 24 hrs by LC/MS/MS analysis; type: ADME, organism-based, Macaca mulatta; parameters: time infinity, dose 15 mg/kg, route oral; conditions: rhesus monkey, plasma
[27] = Apparent elimination half life Sprague-Dawley rat at 10 mg/kg, po after 24 hrs by LC/MS/MS analysis; type: ADME, organism-based; parameters: dose 10 mg/kg, route oral; conditions: in vivo
[28] = Apparent elimination half life in monkey at 5 mg/kg, po after 24 hrs by LC/MS/MS analysis; type: ADME, organism-based, Macaca mulatta; parameters: dose 5 mg/kg, route oral; conditions: rhesus monkey, in vivo
[29] = Apparent elimination half life in monkey at 15 mg/kg, po after 24 hrs by LC/MS/MS analysis; type: ADME, organism-based, Macaca mulatta; parameters: dose 15 mg/kg, route oral; conditions: rhesus monkey, in vivo
[30] = Oral bioavailability in Sprague-Dawley rat at 5 mg/kg after 24 hrs by LC/MS/MS analysis; type: ADME, organism-based; conditions: in vivo
[31] = Oral bioavailability in Sprague-Dawley rat at 10 mg/kg after 24 hrs by LC/MS/MS analysis; type: ADME, organism-based; conditions: in vivo
[32] = AUC (2 to 24 hrs) in Sprague-Dawley rat liver at 10 mg/kg, iv by LC/MS/MS analysis; type: ADME, organism-based; parameters: time 2-24 hr, dose 10 mg/kg, route intravenous
[33] = AUC (2 to 24 hrs) in Sprague-Dawley rat liver at 10 mg/kg, po by LC/MS/MS analysis; type: ADME, organism-based; parameters: time 2-24 hr, dose 10 mg/kg, route oral
[34] = AUC (2 to 24 hrs) in Sprague-Dawley rat liver at 30 mg/kg, po by LC/MS/MS analysis; type: ADME, organism-based; parameters: time upper 24 hr, time lower 2 hr, dose 30 mg/kg, route oral
[35] = AUC (2 to 24 hrs) in Sprague-Dawley rat whole blood at 10 mg/kg, iv by LC/MS/MS analysis; type: ADME, organism-based; parameters: time 2-24 hr, dose 10 mg/kg, route intravenous
[36] = Cmax in Sprague-Dawley rat whole blood at 10 mg/kg, po by LC/MS/MS analysis; type: ADME, organism-based; parameters: dose 10 mg/kg, route oral
[37] = Cmax in Sprague-Dawley rat whole blood at 30 mg/kg, po by LC/MS/MS analysis; type: ADME, organism-based; parameters: dose 30 mg/kg, route oral
Hepatocyte [38] = assay: Cellular uptake in human hepatocytes assessed per mg of cellular protein association with nonparenchymal fraction at 0.378 uM after 1 hr by LC/MS/MS analysis; type: ADME, cell-based
Hepatocyte [39] = assay: Cellular uptake in human hepatocytes assessed per mg of cellular protein association with hepatocyte fraction at 2.27 uM after 1 hr by LC/MS/MS analysis; type: ADME, cell-based
Hepatitis C virus [40] = assay: Antiviral activity against Hepatitis C virus infected in human Huh7ET cells assessed as inhibition of viral replication at 0.02 to 5 uM by luciferase reporter gene assay; type: functional, organism-based; conditions: Hepacivirus hominis, Huh-7, TDE = time-dependent effect
[41] = AUC (2 to 24 hrs) in Sprague-Dawley rat whole blood at 10 mg/kg, po by LC/MS/MS analysis; type: ADME, organism-based; parameters: time upper 24 hr, time lower 2 hr, dose 10 mg/kg, route oral
Jurkat = assay: cells; conditions: Homo sapiens
Hepatitis C virus [42] = assay: microbe, parasite or virus in culture; conditions: Huh-7, 24 h
Description: Antiviral activity against Hepatitis C virus infected in human Huh7ET cells assessed as inhibition of viral replication after 24 hrs by luciferase reporter gene assay

Hepatitis C virus [43] = assay: microbe, parasite or virus in culture; conditions: Huh-7, 24 h; remark: listed apart in the source
Description: Antiviral activity against Hepatitis C virus infected in human Huh7ET cells assessed as inhibition of viral replication after 24 hrs by RT-PCR analysis

Hepatitis C virus [44] = assay: microbe, parasite or virus in culture; conditions: Huh-7, 72 h
Description: Antiviral activity against Hepatitis C virus infected in human Huh7ET cells assessed as inhibition of viral replication after 72 hrs by RT-PCR analysis

Hepatitis C virus [45] = assay: microbe, parasite or virus in culture; conditions: Huh-7, 120 h
Description: Antiviral activity against Hepatitis C virus infected in human Huh7ET cells assessed as inhibition of viral replication after 120 hrs by RT-PCR analysis

Chain of Cytochrome P450 3A4 (P08684 whole entry): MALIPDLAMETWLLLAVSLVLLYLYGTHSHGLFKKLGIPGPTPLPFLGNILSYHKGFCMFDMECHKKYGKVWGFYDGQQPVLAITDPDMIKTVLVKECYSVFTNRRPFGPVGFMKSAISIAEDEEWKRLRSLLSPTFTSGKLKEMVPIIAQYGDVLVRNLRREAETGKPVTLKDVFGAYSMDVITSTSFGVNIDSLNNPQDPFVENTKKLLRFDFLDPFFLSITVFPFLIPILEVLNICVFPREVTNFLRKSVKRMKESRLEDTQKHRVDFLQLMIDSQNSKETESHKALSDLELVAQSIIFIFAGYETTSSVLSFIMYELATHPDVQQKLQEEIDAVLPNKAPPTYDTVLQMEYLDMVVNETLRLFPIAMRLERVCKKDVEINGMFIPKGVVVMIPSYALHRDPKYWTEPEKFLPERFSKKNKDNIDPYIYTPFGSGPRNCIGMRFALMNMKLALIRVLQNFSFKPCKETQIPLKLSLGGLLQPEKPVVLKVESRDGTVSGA

C/C=C/C[C@@H](C)[C@@H](O)[C@H]1C(=O)N[C@@H](CC)C(=O)N(C)C(SCCN(C)C)C(=O)N(C)[C@@H](CC(C)(C)O)C(=O)N[C@@H](C(C)C)C(=O)N(C)[C@@H](CC(C)C)C(=O)N[C@@H](C)C(=O)N[C@H](C)C(=O)N(C)[C@@H](CC(C)C)C(=O)N(C)[C@@H](CC(C)C)C(=O)N(C)[C@@H](C(C)C)C(=O)N1C (single isomer, unassigned) [SCY 635] gave a clearance [1] of 9 µL/min/mg, an IC50 (Cytochrome P450 3A4) of 58500 nM and an IC50 (Cytochrome P450 2D6) of over 100000 nM. For the same compound, the Cmax [2] was 1510 ng/mL, the Cmax [3] was 2990 ng/mL and the Cmax [4] was 2310 ng/mL. It also gave a Cmax [5] of 2560 ng/mL, a Vd [6] of 4.3 L/kg and a Vd [7] of 1.69 L/kg. For the same compound, the Vd [8] was 1.02 L/kg, the clearance [9] was 2.23 mL/min/kg and the clearance [10] was 0.528 mL/min/kg. For the same compound, the half-life [11] was 26.3 h, the half-life [12] was 22.2 h and the half-life [13] was 22.3 h. The AUC(0-inf) [14] was 22500 ng·h/mL, the AUC(0-inf) [15] was 37300 ng·h/mL and the AUC(0-inf) [16] was 49900 ng·h/mL. It also gave an AUC(0-inf) [17] of 31500 ng·h/mL, a Cmax [18] of 900 ng/mL and a Cmax [19] of 2430 ng/mL. It also gave a Cmax [20] of 1810 ng/mL, a Tmax [21] of 2 h and a Tmax [22] of 2 h. For the same compound, the Tmax [23] was 2.7 h, the AUC(0-inf) [24] was 13000 ng·h/mL and the AUC(0-inf) [25] was 42500 ng·h/mL. It also gave an AUC(0-inf) [26] of 59200 ng·h/mL, a half-life [27] of 21.4 h and a half-life [28] of 24.6 h. For the same compound, the half-life [29] was 43.3 h, the bioavailability [30] was 23.1% and the bioavailability [31] was 23.6%. For the same compound, the AUC(0-t) [32] was 139000 ng·h/mL, the AUC(0-t) [33] was 120000 ng·h/mL and the AUC(0-t) [34] was 141000 ng·h/mL. It also gave an AUC(0-t) [35] of 30500 ng·h/mL, a Cmax [36] of 1870 ng/mL and a Cmax [37] of 2220 ng/mL. For the same compound, the Drug uptake (Hepatocyte [38]) was 0.55 ng/mg, the Drug uptake (Hepatocyte [39]) was 6.05 ng/mg and the Activity (Hepatitis C virus [40]) was “tde”. It also gave an AUC(0-t) [41] of 18000 ng·h/mL, an EC50 (Jurkat) of 9900 nM and an EC50 (Hepatitis C virus [42]) of 200 nM. For the same compound, the EC50 (Hepatitis C virus [43]) was 120 nM, the EC50 (Hepatitis C virus [44]) was 160 nM and the EC50 (Hepatitis C virus [45]) was 150 nM.
